For 15 compounds, IC50 results are on record in patent US10851073B2, “Protein tyrosine phosphatase inhibitors and methods of use thereof” (Calico Life Sciences LLC, priority 2019, dated 2020).

The term IC50 denotes the midpoint of a concentration-inhibition curve.

Assay [1] deals with T1, His tagged PTPN2 (TC45) protein (Homo sapiens, UniProt P17706).
T1 construct: made in house
T1 sequence (P17706 with tags, fused parts or gaps isoform P17706-2): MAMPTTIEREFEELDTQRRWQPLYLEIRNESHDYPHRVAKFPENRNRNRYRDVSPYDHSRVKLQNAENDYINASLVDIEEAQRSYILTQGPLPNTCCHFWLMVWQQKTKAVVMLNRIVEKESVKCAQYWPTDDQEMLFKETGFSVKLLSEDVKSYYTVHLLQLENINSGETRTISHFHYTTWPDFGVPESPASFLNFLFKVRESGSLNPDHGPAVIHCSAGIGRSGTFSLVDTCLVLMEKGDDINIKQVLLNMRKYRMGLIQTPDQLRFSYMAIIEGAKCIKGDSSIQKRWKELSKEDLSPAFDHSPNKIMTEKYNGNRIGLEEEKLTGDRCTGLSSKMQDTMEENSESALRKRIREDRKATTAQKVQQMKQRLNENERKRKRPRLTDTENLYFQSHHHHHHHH
Kind of assay: Mobility shift assay used to determine potency of PTPN2 inhibitors. The class given is biochemical. The following applies: enzyme 0.5 nM, substrate 2 μM; read-out: PTPN2 MSA IC50. Summed up:
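Enzyme (0.5 nM) preincubated with compound (12-point, 1:3 dilution) 10 min at room temperature in 50 mM HEPES pH 7.5, 1 mM EGTA, 10 mM EDTA, 0.01% Tween 20, 2 mM DTT; OG488-labelled phospho-insulin-receptor peptide substrate (2 μM) added for 10 min, then quenched. Microfluidic mobility shift (ex 488/em 530 nm) gave % conversion; IC50 from % inhibition.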

The target in assay [2] is T2, His tagged full-length PTPN1 protein (Homo sapiens, UniProt P18031).
T2 construct: made in house
T2 sequence (P18031 with tags, fused parts or gaps): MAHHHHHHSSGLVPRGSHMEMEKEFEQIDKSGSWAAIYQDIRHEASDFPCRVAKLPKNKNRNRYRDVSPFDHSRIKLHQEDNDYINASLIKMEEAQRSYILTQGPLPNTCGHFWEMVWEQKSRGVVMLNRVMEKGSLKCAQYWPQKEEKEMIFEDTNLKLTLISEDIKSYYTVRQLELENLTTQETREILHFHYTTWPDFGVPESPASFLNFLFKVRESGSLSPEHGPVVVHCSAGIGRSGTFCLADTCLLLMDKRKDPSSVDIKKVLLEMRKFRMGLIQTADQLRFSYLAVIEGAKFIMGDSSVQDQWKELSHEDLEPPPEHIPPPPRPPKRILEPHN
Kind of assay: Mobility shift assay (MSA) used to determine potency of PTPN1 inhibitors. The class given is biochemical. The conditions noted are these: enzyme 0.5 nM, substrate 2 μM. How it is done: Example 228: Mobility Shift Assay (MSA) Used to Determine Potency of PTPN1 Inhibitors
Compound activity was determined using in house His tagged full-length PTPN1 protein (SEQ ID NO: 3) in an in vitro enzymatic reaction. The enzymatic assay used to determine activity is a mobility shift assay using a LabChip EZ Reader by Caliper Life Sciences. The enzymatic reaction was carried out in assay buffer (50 mM HEPES pH 7.5, 1 mM EGTA, 10 mM EDTA, 0.01% Tween® 20, and 2 mM DTT). The compounds were dispensed on a white 384 well ProxiPlate™ (PerkinElmer Cat^# 6008289) plate using a Labcyte Echo® liquid handler at varying concentrations (12 point, 1:3 dilution). The enzyme (at 0.5 nM) was incubated with compound for 10 minutes at room temperature. Then the substrate (phosphorylated insulin receptor probe sequence: ((OG488)-(NH—CH2—CH2—O—CH2—CH2—O—CH2—CO)-T-R-D-I-(PY)-E-T-D-Y-Y-R-K-K-NH2) (SEQ ID NO: 2) was added at 2 μM to the plates and incubated for another 10 minutes at room temperature. Finally, a quench solution (water and 4-bromo-3-(2-oxo-2-propoxyethoxy)-5-(3-{[1-(phenylmethanesulfonyl)piperidin-4-yl]amino}phenyl)thiophene-2-carboxylic acid) was added to the plates, which were then run on the EZ Reader (excitation 488 nm, emission 530 nm) to measure % conversion (the amount of phosphorylated substrate which was de-phosphorylated by PTPN1). […] The % inhibition was then used to calculate the IC50 values.

Assay [3] relates to B16F10 mouse melanoma cells. Kind of assay: B16F10 IFNγ-induced cellular growth inhibition assay. The class given is cell-based. The conditions noted are these: B16-F10, with 0.5 ng/mL IFNγ, read-out: B16F10 GI IC50. As for the experimental part:
Example 229: B16F10 IFNγ-Induced Cellular Growth Inhibition Assay B16F10 mouse melanoma cells (ATCC Cat^# CRL-6475, Manassas, Va.) were seeded at a density of 500 cells per well in a 384-well clear bottom plate (Corning Cat^#3765, Corning, N.Y.) in 25 μL total volume of DMEM+10% FBS (Sigma Cat^# D6429 and Sigma Cat^# F4135, St. Louis, Mo.). Cells were allowed to adhere overnight at 37° C.+5% CO2. On the following day, 12.5 μL of mouse IFNγ (RD systems Cat^#485-MI/CF, Minneapolis, Minn.) was added to half of the plate (columns 13-24) at a concentration of 2 ng/mL for a final assay concentration of 0.5 ng/mL of IFNγ. Media only (12.5 μL of DMEM+10% FBS) was added to the remainder of the plate (columns 1-12). Next, compounds resuspended in DMSO (Sigma Cat^# D2650) at 100 mM were diluted in semi-log dilutions in DMSO ranging from 100 mM to 0.001 mM and DMSO only controls were included. The compound/DMSO dilutions were further diluted 1:250 in DMEM+10% FBS, and 12.5 μL of these dilutions were added in triplicates to cells of both treatment arms (with and without IFNγ). Final compound concentrations ranged from 100 μM to 0.001 μM with a final DMSO concentration of 0.1%. Compounds were only dosed in the inner 240 wells, avoiding the outer 2-well perimeter of the plate to minim/ze edge effects. Finally, the plate was loaded into an IncuCyte® S3 Live Cell Analysis System (Essen Bioscience-Sartorius, Ann Arbor, Mich.) maintained in a 37° C.+5% CO2 incubator, allowed to equilibrate for 2 hours, and imaged every 6 hours for 5 days. Confluence over time for compound dilutions in the presence and absence of IFNγ was measured. Growth inhibition values were obtained when the “DMSO/no IFNγ” control reached confluence >95%. At these time points, for each compound the percent growth inhibition at every compound dose level was calculated relative to the “DMSO/with IFNγ” control and used to determine the IC50.

Molecules are shown by their SMILES.

For the compound `CC(C)C1CCN(C2CCc3cc(O)c(N4CC(=O)NS4(=O)=O)c(F)c3C2)C1` (centres unmarked) [Compound 172, 5-{1-fluoro-3-hydroxy-7-[3-(propan-2-yl)pyrrolidin-1-yl]-5,6,7,8-tetrahydronaphthalen-2-yl}-1λ^6,2,5-thiadiazolidine-1,1,3-trione], the IC50 in assay [1] is 0.01 to 0.1 µM; in assay [2] it was 0.01 to 0.1 µM; in assay [3] it was 1 to 10 µM.
Consider `O=C1CN(c2c(O)cc3c(c2F)CC(N[C@H]2C[C@@H](OC(F)(F)F)C2)CC3)S(=O)(=O)N1` (some centres unmarked) [Compound 235, 5-(1-fluoro-3-hydroxy-7-{[(1s,3s)-3-(trifluoromethoxy)cyclobutyl]amino}-5,6,7,8-tetrahydronaphthalen-2-yl)-1λ^6,2,5-thiadiazolidine-1,1,3-trione], for which the concentration for half-maximal inhibition (IC50) is 0.01 to 0.1 µM in assay [1], 0.01 to 0.1 µM in assay [2] and 1 to 10 µM in assay [3].
In the case of `O=C1CN(c2c(O)cc3c(c2F)CC(NCC(F)(F)CC2CC2)CC3)S(=O)(=O)N1` (centres unmarked) [Compound 126, 5-{7-[(3-cyclopropyl-2,2-difluoropropyl)amino]-1-fluoro-3-hydroxy-5,6,7,8-tetrahydronaphthalen-2-yl}-1λ^6,2,5-thiadiazolidine-1,1,3-trione], the results for the IC50 in assay [1], in assay [2] and in assay [3] were 0.001 to 0.01 µM, 0.001 to 0.01 µM and 1 to 10 µM, respectively.
For the compound `CC(C)CCN(C)C1CCc2cc(O)c(N3CC(=O)NS3(=O)=O)c(F)c2C1` (centres unmarked) [Compound 128, 5-{1-fluoro-3-hydroxy-7-[methyl(3-methylbutyl)amino]-5,6,7,8-tetrahydronaphthalen-2-yl}-1λ^6,2,5-thiadiazolidine-1,1,3-trione], the IC50 in assay [1] was 0.001 to 0.01 µM; in assay [2] it was 0.001 to 0.01 µM; in assay [3] it was 1 to 10 µM.
On to `CO[C@H]1CCc2cc(O)c(N3CC(=O)NS3(=O)=O)c(F)c2C1` (single isomer, unassigned) [Compound 109], for which the results for the IC50 in assay [1], in assay [2] and in assay [3] were 0.01 to 0.1 µM, 0.01 to 0.1 µM and 10 to 100 µM, respectively.
`CC(C)CCN(Cc1ccccn1)C1CCc2cc(O)c(N3CC(=O)NS3(=O)=O)c(F)c2C1` (centres unmarked) [Compound 154, 5-(1-fluoro-3-hydroxy-7-{(3-methylbutyl)[(pyridin-2-yl)methyl]amino}-5,6,7,8-tetrahydronaphthalen-2-yl)-1λ^6,2,5-thiadiazolidine-1,1,3-trione]: the values for the IC50 in assay [1] and in assay [2] were 0.001 to 0.01 µM and 0.01 to 0.1 µM, respectively.
The corresponding values for `O=C1CN(c2c(O)cc3c(c2F)CN(CC(O)C2CCCCC2)CC3)S(=O)(=O)N1` (centres unmarked) [Compound 215, 5-[2-(2-cyclohexyl-2-hydroxyethyl)-8-fluoro-6-hydroxy-1,2,3,4-tetrahydroisoquinolin-7-yl]-1λ^6,2,5-thiadiazolidine-1,1,3-trione] are greater than 0.1 µM and greater than 0.1 µM.
The corresponding values for `O=C1CN(c2c(O)cc3c(c2F)CCC(NCCCC(F)F)C3)S(=O)(=O)N1` (centres unmarked) [Compound 311, 5-{6-[(4,4-difluorobutyl)amino]-1-fluoro-3-hydroxy-5,6,7,8-tetrahydronaphthalen-2-yl}-1λ^6,2,5-thiadiazolidine-1,1,3-trione] are 0.001 to 0.01 µM and 0.001 to 0.01 µM.
Turning to `O=C1CN(c2c(O)cc3c(c2F)CN(C(=O)NCC2CCOC2)CC3)S(=O)(=O)N1` (centres unmarked) [Compound 270, 8-fluoro-6-hydroxy-N-[(oxolan-3-yl)methyl]-7-(1,1,4-trioxo-1λ^6,2,5-thiadiazolidin-2-yl)-3,4-dihydroisoquinoline-2(1H)-carboxamide], the IC50 in assay [1] and in assay [2] was 0.01 to 0.1 µM each time.
Turning to `O=C1CN(c2c(O)cc3c(c2F)CC(NCCn2cccn2)CC3)S(=O)(=O)N1` (centres unmarked) [Compound 141, 5-(1-fluoro-3-hydroxy-7-{[2-(1H-pyrazol-1-yl)ethyl]amino}-5,6,7,8-tetrahydronaphthalen-2-yl)-1λ^6,2,5-thiadiazolidine-1,1,3-trione], the IC50 was 0.001 to 0.01 µM in assay [1] and 0.01 to 0.1 µM in assay [2].
The corresponding values for `O=C1CN(c2c(O)cc3c(c2F)CN(C[C@H]2C[C@@H]2c2ccncc2)CC3)S(=O)(=O)N1` (racemic) [Compound 248, 5-(8-fluoro-6-hydroxy-2-{[rac-(1R,2R)-2-(pyridin-4-yl)cyclopropyl]methyl}-1,2,3,4-tetrahydroisoquinolin-7-yl)-1λ^6,2,5-thiadiazolidine-1,1,3-trione] are 0.01 to 0.1 µM and 0.01 to 0.1 µM.
The corresponding values for `CC(O)CCN1CCc2cc(O)c(N3CC(=O)NS3(=O)=O)c(F)c2C1` (centres unmarked) [Compound 242, 5-[8-fluoro-6-hydroxy-2-(3-hydroxybutyl)-1,2,3,4-tetrahydroisoquinolin-7-yl]-1λ^6,2,5-thiadiazolidine-1,1,3-trione] are 0.01 to 0.1 µM and 0.01 to 0.1 µM.
Regarding `O=C1CN(c2c(O)cc3c(c2F)CN(CC2CC4CCC2O4)CC3)S(=O)(=O)N1` (centres unmarked) [Compound 222, 5-{8-fluoro-6-hydroxy-2-[(7-oxabicyclo[2.2.1]heptan-2-yl)methyl]-1,2,3,4-tetrahydroisoquinolin-7-yl}-1λ^6,2,5-thiadiazolidine-1,1,3-trione], the IC50 in assay [1] and in assay [2] was 0.01 to 0.1 µM each time.
In the case of `O=C1CN(c2c(O)cc3c(c2F)CC(CNCCC2CCC2)C3)S(=O)(=O)N1` (centres unmarked) [Compound 305, 5-(2-{[(2-cyclobutylethyl)amino]methyl}-4-fluoro-6-hydroxy-2,3-dihydro-1H-inden-5-yl)-1λ^6,2,5-thiadiazolidine-1,1,3-trione], the IC50 in assay [1] and in assay [2] was 0.01 to 0.1 µM each time.
Turning to `O=C1CN(c2c(O)cc3c(c2F)CC(OC(=O)Nc2ccccc2)CC3)S(=O)(=O)N1` (centres unmarked) [Compound 149, 8-fluoro-6-hydroxy-7-(1,1,4-trioxo-1λ^6,2,5-thiadiazolidin-2-yl)-1,2,3,4-tetrahydronaphthalen-2-yl Phenylcarbamate], the IC50 in assay [1] lay in the range of 0.001 to 0.01 µM; in assay [2], 0.01 to 0.1 µM.
